Data published in patent US8815270B2, “Methods and compositions for treating ectoparasite infestation” (Piedmont Pharmaceuticals, LLC, priority 2002, dated 2014).

Tested on: adult body louse, Pediculous humanus humanus
Protocol: In this embodiment, the effectiveness of pediculicidal materials in the formulation of Example 1 is examined against the adult body louse, Pediculous humanus humanus. But this procedure can be used to test the effectiveness of a composition against the head louse, fleas, ticks, or any ectoparasite. In the following description, “morbid” means that the louse is unable to move towards heat 1 h after treatment. The parasite is sick but not necessarily dying, and may recover to resume normal behavior within 24 hours. By “moribund” is meant the parasite is unable to move towards heat (and therefore food) 24 hours after treatment and is dying.
Four replicates of 25 lice each, plus five control replicates were examined. A plastic or glass vial, screened at the bottom with 20-mesh was used as the dipping vessel. A plunger, made from a plastic rod, and a circular screen was fitted inside the vial.
25 adult lice of mixed sexes were placed in the bottom of a test container. A screened plunger was inserted to keep the lice from floating to the surface. The pediculicide material to be tested was placed in a 100-ml beaker and the beaker introduced into a waterbath maintained at 32° C. The test container was placed into the pediculicide in the 100-ml beaker and the lice kept under the pediculicide for 1, 4 or 10 minutes. The test container was removed at end of the desired dipping period. […]

## CCCCCCCCCCCCCC(=O)OC(C)C [isopropyl myristate, 1-methylethyltetradecanoate]
  lice killed (mortality) after 1 hour: about 82%
  mortality of lice after 24 hours: 100%
